# Measurements taken from patent US11618738B2, “Compound and application thereof in treating inflammation or inflammation-related diseases” (SICHUAN CENTER FOR TRANSLATIONAL MEDICINE OF TRADITIONAL …, priority 2017, dated 2023).
# Where two headings read alike, the source gives them in different places. Marks after values point to notes of the source that are not given here.
# Experiments:
# PGE2 induced by LPS = test: Inhibition of LPS-induced PGE2 in RAW 264.7 cells (ELISA); format: cell-based, mice
# Method: (§1) This example is taken from a previous publication by Song et al.^[1]. In brief, mice RAW 264.7 cells were treated with increasing doses of each test compound at 37° C. for 1 hour. Thereafter, the cells were attacked with 20 μL/well of LPS (equivalent to a final concentration of 100 ng/mL). The cells were further incubated overnight at 37° C. A commercial ELISA assay kit obtained from R&D Systems (Minneapolis, Minn.) was used to determine the level of PGE2 in the supernatant, and three parallel experiments were performed. The optical density of each well was measured using a BioTek Epoch microplate reader (Winooski, Vt.) set to 450 nm. The NO study was performed in a similar manner, but Greiss reagent was used to monitor the level of NO, and the results were read at 550 nm.
# NO induced by LPS = test: Inhibition of LPS-induced NO in RAW 264.7 cells (Greiss reagent); format: cell-based, mice; settings: for IC50: Mus musculus, RAW264.7
# Description: Nitric oxide (NO) is a signaling molecule that plays a key role in the pathogenesis of inflammation. Under abnormal conditions, NO is a pro-inflammatory mediator that causes inflammation due to its overproduction. Therefore, the regulation of elevated NO levels by stimulants (such as LPS) has been widely used as a screening method to identify anti-inflammatory drugs. Since NO is oxidized into nitrite and nitrate, the determination of total NO2^−/NO3^− is a conventional method for determining NO levels, and Griess reagent is usually used in this type of experiment.
# as §1
# hot plate pain in mice = test: Hot plate pain threshold in mice; format: in vivo; settings: for Percentage increase in pain threshold (%): mean ± SD
# Method: The hot plate method uses a certain intensity of warm heat to stimulate mice to produce pain reaction. This experiment observes the analgesic effect of UTLOH series compounds.
# Female SPF-grade Kunming mice (18-22 g/mouse) were put in a hot plate apparatus at a temperature of 55±0.5° C., and the pain threshold of the mice was measured. The measurement was performed twice, and the measurement was performed every 5 minutes. Taking the mouse licking hind feet as the observation index. The mice with pain response within 30 s were selected as experimental animals. The pre-selected qualified mice were randomly grouped according to their body weight. The blank group was intraperitoneally injected with 0.2 ml/10 g body weight of normal saline, and the other groups were intraperitoneally injected with corresponding drugs. The pain threshold was measured 30 and 60 minutes after the administration. If the mouse had no pain within 60 seconds, it was taken out immediately and calculated at 60 seconds.
# [1] = tested on: 10% egg white-induced foot swelling in rats; test: 10% egg white-induced foot swelling in rats; format: in vivo; settings: for Foot swelling: mean ± SD
# Description: Injecting 10% egg white into rat paws can cause early acute inflammation such as redness, heat, swelling, and pain in rat paws. In this experiment, the anti-inflammatory effects of UTLOH series compounds were observed by the degree of swelling of the paws of rats after inflammation.
# SPF grade SD rats, half female and half male (100-120 g/mouse) were randomly grouped according to body weight. Each group was given the corresponding drugs by gavage, once a day, for 3 consecutive days, with a gavage volume of 1 ml/100 g. Before the experiment, the ankle joint of the right hind foot of each group of rats was marked, and the foot volume of each group of rats was measured twice with a rat foot volume meter, and the average of the two times was taken as the […]. 30 minutes after the last administration, the rats in each group were given a subcutaneous needle in the right hind paw, and injected with 10% fresh egg white solution 0.1 ml/mouse to cause inflammation, establishing a rat model of paw swelling. The post-inflamed foot volume in mice was measured twice at 1 h, 2 h, 3 h, and 4 h after inflammation, and the average of the two times was taken as the post-inflamed foot volume. The normal group was given 1 ml/100 g volume of 0.5% CMC-Na solution by gavage according to body weight.
# [2] = tested on: acute gouty arthritis in rats induced by sodium urate crystals; test: Foot swelling in rats with acute gouty arthritis induced by sodium urate crystals; format: in vivo; settings: for foot volume compared with the model group (in words): medium- and high-dose groups, 24 h and 48 h after injection of sodium urate crystals
# Method: Injecting sodium urate crystals into the joint cavity to establish an acute gouty arthritis model. Its pathological and clinical manifestations are very similar. It is a classic method commonly used in animal experiments to study gouty arthritis. This experiment will explore the effects of UTLOH series drugs on animals with acute gouty arthritis induced by sodium urate.
# SPF grade SD rats, half female and half male (200-220 g/mouse), were randomly grouped by weight. The drug was administered once a day, for 3 consecutive days. […] Rats in the normal group were injected with an equal volume of sterile saline to the back of the right ankle joint. The administration was continued after modeling, once a day for 3 consecutive days. The ankle joint and foot volume of the rats in each group were measured respectively before modeling and 2 h, 4 h, 8 h, 24 h and 48 h after modeling.
# [3] = 25 mg/kg intraperitoneal, 30 min after administration
# [4] = 25 mg/kg intraperitoneal, 60 min after administration
# [5] = 50 mg/kg intraperitoneal, 30 min after administration
# [6] = 100 mg/kg intraperitoneal, 30 min after administration
# [7] = 100 mg/kg intraperitoneal, 60 min after administration
# [8] = 200 mg/kg intraperitoneal, 30 min after administration
# [9] = 200 mg/kg intraperitoneal, 60 min after administration
# [10] = 10 mg/kg gavage once a day for 3 days, 1 h after inflammation
# [11] = 10 mg/kg gavage once a day for 3 days, 2 h after inflammation
# [12] = 10 mg/kg gavage once a day for 3 days, 3 h after inflammation
# [13] = 10 mg/kg gavage once a day for 3 days, 4 h after inflammation
# [14] = 20 mg/kg gavage once a day for 3 days, 1 h after inflammation
# [15] = 20 mg/kg gavage once a day for 3 days, 2 h after inflammation
# [16] = 20 mg/kg gavage once a day for 3 days, 3 h after inflammation
# [17] = 20 mg/kg gavage once a day for 3 days, 4 h after inflammation
# [18] = 40 mg/kg gavage once a day for 3 days, 1 h after inflammation
# [19] = 40 mg/kg gavage once a day for 3 days, 2 h after inflammation
# [20] = 40 mg/kg gavage once a day for 3 days, 3 h after inflammation
# [21] = 40 mg/kg gavage once a day for 3 days, 4 h after inflammation
# [22] = 10 mg/kg once a day, 2 h after modeling, mean ± SD
# [23] = 10 mg/kg once a day, 4 h after modeling, mean ± SD
# [24] = 10 mg/kg once a day, 8 h after modeling, mean ± SD
# [25] = 10 mg/kg once a day, 24 h after modeling, mean ± SD
# [26] = 10 mg/kg once a day, 48 h after modeling, mean ± SD
# [27] = 20 mg/kg once a day, 2 h after modeling, mean ± SD
# [28] = 20 mg/kg once a day, 4 h after modeling, mean ± SD
# [29] = 20 mg/kg once a day, 8 h after modeling, mean ± SD
# [30] = 20 mg/kg once a day, 24 h after modeling, mean ± SD
# [31] = 20 mg/kg once a day, 48 h after modeling, mean ± SD
# [32] = 40 mg/kg once a day, 2 h after modeling, mean ± SD
# [33] = 40 mg/kg once a day, 4 h after modeling, mean ± SD
# [34] = 40 mg/kg once a day, 8 h after modeling, mean ± SD
# [35] = 40 mg/kg once a day, 24 h after modeling, mean ± SD
# [36] = 40 mg/kg once a day, 48 h after modeling, mean ± SD
structure (smiles),measurement,setting,value
Cc1cc(C(=O)Nc2ccccc2O)no1 [UTLOH-4a],PGE2 inhibition (%),"PGE2 induced by LPS; RAW 264.7 cells, LPS 100 ng/mL, overnight, test concentration not given",98.5%
same,inhibition on PGE2 compared to leflunomide (in words),PGE2 induced by LPS; compared to leflunomide,stronger
same,IC50,"NO induced by LPS; RAW 264.7 cells, LPS 100 ng/mL, overnight, read-out: NO IC50 (μM), class",< 10 µM
same,IC50,"NO induced by LPS; RAW 264.7 cells, LPS 100 ng/mL, overnight, read-out: NO IC50 (μM), value in brackets",1.4 µM
same,inhibition of LPS-induced NO compared with leflunomide and teriflunomide (in words),NO induced by LPS; compared with leflunomide and teriflunomide,more strongly
same,Percentage increase in pain threshold (%),hot plate pain in mice; [3],−15.08 ± 37.87%
same,Percentage increase in pain threshold (%),hot plate pain in mice; [4],−16.76 ± 33.81%
same,Percentage increase in pain threshold (%),hot plate pain in mice; [5],−6.95 ± 41.45%
same,"percentage increase in the pain threshold, hot plate (in words)","hot plate pain in mice; 100 mg/kg and 200 mg/kg, 30 and 60 minutes after administration",significantly reduce
same,Percentage increase in pain threshold (%),hot plate pain in mice; [6],−19.99 ± 38.23 %
same,Percentage increase in pain threshold (%),hot plate pain in mice; [7],−34.23 ± 39.23 %
same,Percentage increase in pain threshold (%),hot plate pain in mice; [8],−30.12 ± 27.69 %
same,Percentage increase in pain threshold (%),hot plate pain in mice; [9],−29.65 ± 24.62 %
same,Foot swelling,[1]; [10],0.50 ± 0.08 mL
same,Foot swelling,[1]; [11],0.79 ± 0.07 mL
same,Foot swelling,[1]; [12],0.63 ± 0.13 mL
same,Foot swelling,[1]; [13],0.47 ± 0.13 mL
same,Foot swelling,[1]; [14],0.55 ± 0.11 mL
same,Foot swelling,[1]; [15],0.79 ± 0.14 mL
same,Foot swelling,[1]; [16],0.64 ± 0.15 mL
same,Foot swelling,[1]; [17],0.48 ± 0.12 mL
same,Foot swelling,[1]; [18],0.65 ± 0.18 mL
same,Foot swelling,[1]; [19],0.77 ± 0.11 mL
same,Foot swelling,[1]; [20],0.57 ± 0.15 mL
same,Foot swelling,[1]; [21],0.48 ± 0.12 mL
same,foot swelling compared with the normal group (in words),"[1]; low, medium- and high-dose group, 1 h after inflammation",significantly reduce
same,Foot swelling,[2]; [22],0.33 ± 0.20 mL
same,Foot swelling,[2]; [23],0.31 ± 0.10 mL
same,Foot swelling,[2]; [24],0.29 ± 0.09 mL
same,Foot swelling,[2]; [25],0.20 ± 0.11 mL
same,Foot swelling,[2]; [26],0.03 ± 0.11 mL
same,Foot swelling,[2]; [27],0.28 ± 0.13 mL
same,Foot swelling,[2]; [28],0.3 ± 0.13 mL
same,Foot swelling,[2]; [29],0.32 ± 0.09 mL
same,Foot swelling,[2]; [30],0.21 ± 0.14 mL
same,Foot swelling (ml),[2]; [31],0.07 ± 13*^ ml
same,Foot swelling,[2]; [32],0.30 ± 0.13 mL
same,Foot swelling,[2]; [33],0.36 ± 0.13 mL
same,Foot swelling,[2]; [34],0.36 ± 0.09 mL
same,Foot swelling,[2]; [35],0.19 ± 0.11 mL
same,Foot swelling,[2]; [36],0.11 ± 0.09 mL
same,foot volume compared with the model group (in words),[2]; low-,significantly reduce
Cc1cc(C(=O)Nc2ccc(O)cc2O)no1 [UTLOH-4e],PGE2 inhibition rate (in words),PGE2 induced by LPS; same experimental method as Table 1,very good
same,IC50,"NO induced by LPS; same method as Table 1, given as 10-50 μM, or <10 μM, read-out: IC50 of NO",≤ 50 µM
same,"percentage increase in the pain threshold, hot plate (in words)","hot plate pain in mice; 25 mg/kg and 200 mg/kg, 30 minutes after administration",significantly reduce
same,Percentage increase in pain threshold (%),hot plate pain in mice; [3],−17.71 ± 38.50 %
same,Percentage increase in pain threshold (%),hot plate pain in mice; [4],−2.76 ± 34.01%
same,Percentage increase in pain threshold (%),hot plate pain in mice; [5],−3.15 ± 46.73%
same,Percentage increase in pain threshold (%),"hot plate pain in mice; 50 mg/kg intraperitoneal, 60 min after administration",8.36 ± 84.14%
same,Percentage increase in pain threshold (%),hot plate pain in mice; [6],15.50 ± 103.74%
same,Percentage increase in pain threshold (%),hot plate pain in mice; [7],−11.18 ± 85.76%
same,Percentage increase in pain threshold (%),hot plate pain in mice; [8],−28.73 ± 28.36 %
same,Percentage increase in pain threshold (%),hot plate pain in mice; [9],−16.72 ± 40.12%
same,Foot swelling,[1]; [10],0.67 ± 0.15 mL
same,Foot swelling,[1]; [11],0.66 ± 0.15 mL
same,Foot swelling,[1]; [12],0.60 ± 0.16 mL
same,Foot swelling,[1]; [13],0.44 ± 0.07 mL
same,Foot swelling,[1]; [14],0.69 ± 0.08 mL
same,Foot swelling,[1]; [15],0.55 ± 0.13 mL
same,Foot swelling,[1]; [16],0.51 ± 0.09 mL
same,Foot swelling,[1]; [17],0.38 ± 0.12 mL
same,Foot swelling,[1]; [18],0.69 ± 0.13 mL
same,Foot swelling,[1]; [19],0.57 ± 0.17 mL
same,Foot swelling,[1]; [20],0.49 ± 0.15 mL
same,Foot swelling,[1]; [21],0.45 ± 0.16 mL
same,foot swelling degree compared with the normal group (in words),"[1]; low-dose group, 1 h after inflammation",significantly reduced
same,foot swelling degree compared with the normal group (in words),"[1]; medium-dose group and high-dose group, 1 h, 2 h and 3 h after inflammation",significantly reduced
same,Foot swelling,[2]; [22],0.28 ± 0.09 mL
same,Foot swelling,[2]; [23],0.34 ± 0.07 mL
same,Foot swelling,[2]; [24],0.33 ± 0.11 mL
same,Foot swelling,[2]; [25],0.22 ± 0.12 mL
same,Foot swelling,[2]; [26],0.05 ± 0.07 mL
same,Foot swelling,[2]; [27],0.18 ± 0.07 mL
same,Foot swelling,[2]; [28],0.24 ± 0.06 mL
same,Foot swelling,[2]; [29],0.19 ± 0.07 mL
same,Foot swelling,[2]; [30],0.19 ± 0.12 mL
same,Foot swelling,[2]; [31],0.09 ± 0.08 mL
same,Foot swelling,[2]; [32],0.20 ± 0.08 mL
same,Foot swelling,[2]; [33],0.25 ± 0.05 mL
same,Foot swelling,[2]; [34],0.19 ± 0.10 mL
same,Foot swelling,[2]; [35],0.22 ± 0.07 mL
same,Foot swelling,[2]; [36],0.09 ± 0.12 mL
same,foot volume compared with the model group (in words),"[2]; 2 h, 4 h, 8 h",significantly reduce
